Reference: PubChem BioAssay (NCI)
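Exposure lasted 48 hours, with cells grown in 96-well plates and compounds tested at five concentrations. At the TGI there is no net growth.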

Test system: A549 NSCLC
Experiment: growth of human tumour cells (NCI), 48 h

Point of comparison: `CC1=CC(C)C/C=C/C2C3OC3(C)C(C)C3C(Cc4c[nH]c5ccccc45)NC(=O)C23C(=O)C=CC(=O)C1O` (stereo unspecified), TGI 26.6 µM. Against it:
- NS(=O)(=O)c1ccc(N=Nc2nc3[nH]c(=O)[nH]c(=O)c3[nH]2)cc1 — higher, > 100 µM
- O=C(O)c1ccc(Nc2c3ccccc3nc3ccccc23)cc1 — higher, > 100 µM
- Cc1cc(C)n(C(=C(C(Cl)=C(Cl)Cl)[N+](=O)[O-])n2nc(C)cc2C)n1 — 2.3-fold lower, 11.4 µM
- COc1ccc(C2COc3cc(OC(C)=O)c(OC(C)=O)cc3C2)cc1 (stereo unspecified) — 2-fold higher, 52.5 µM
- CCOc1cc2c(OCc3ccccc3)cc3c4cc(OC)c(OC)cc4c[n+](C)c3c2cc1OC — within 1.5-fold, 24.2 µM
- C/C(=N\NC(=S)N1CCCCC1)c1nc2ncccc2[nH]1 — 3.6-fold higher, 96.4 µM

Test system: SN12C renal
Experiment: growth of human tumour cells (NCI), 48 h

Point of comparison: `Cc1cc(C)n(C(=C(C(Cl)=C(Cl)Cl)[N+](=O)[O-])n2nc(C)cc2C)n1`, TGI 15.9 µM. Against it:
- c1nc(OCC2CCCCC2)c2[nH]cnc2n1 — higher, > 100 µM
- Oc1cn(-c2ccc(Cl)cc2)nc1-c1nnc(-c2ccccc2)o1 — higher, > 57 µM
- COc1ccc(N2C(=O)/C(=C(\C)c3cc4ccccc4oc3=O)N=C2c2cc([N+](=O)[O-])ccc2Cl)cc1 — higher, > 100 µM
- O=C(O)CC(CC(=O)O)C(=O)O — higher, > 100 µM
- CC(=O)N(C)c1ccc(Nc2cc(C)[nH]c3ccc4ncnc4c23)cc1 — 2.2-fold higher, 34.9 µM
- FC(F)(F)c1ccc(N=C/C=C(/Nc2ccc(C(F)(F)F)cc2)c2ccc(Cl)cc2)cc1 — 1.7-fold higher, 26.3 µM
- CCCCN(CCCC)CC(O)c1cc(-c2ccc(C(F)(F)F)cc2)nc(-c2ccc(C(F)(F)F)cc2)c1 (stereo unspecified) — higher, > 100 µM
- CC(C)(C)[Si](OC1CC(n2cnc3c(N)ncnc32)OC1CO)(c1ccccc1)c1ccccc1 (stereo unspecified) — 2.7-fold higher, 43.3 µM
- NS(=O)(=O)c1ccc(N=Nc2nc3[nH]c(=O)[nH]c(=O)c3[nH]2)cc1 — higher, > 100 µM
- CC1=CC(C)C/C=C/C2C3OC3(C)C(C)C3C(Cc4c[nH]c5ccccc45)NC(=O)C23C(=O)C=CC(=O)C1O (stereo unspecified) — 1.9-fold higher, 30.7 µM
- O=C(O)c1ccc(Nc2c3ccccc3nc3ccccc23)cc1 — higher, > 100 µM
- COc1ccc(C2COc3cc(OC(C)=O)c(OC(C)=O)cc3C2)cc1 (stereo unspecified) — 2.1-fold higher, 32.9 µM
- CCOc1cc2c(OCc3ccccc3)cc3c4cc(OC)c(OC)cc4c[n+](C)c3c2cc1OC — higher, > 100 µM
- C/C(=N\NC(=S)N1CCCCC1)c1nc2ncccc2[nH]1 — higher, > 100 µM

Test system: KM12 colon
Experiment: growth of human tumour cells (NCI), 48 h

Point of comparison: `COc1ccc(N2C(=O)/C(=C(\C)c3cc4ccccc4oc3=O)N=C2c2cc([N+](=O)[O-])ccc2Cl)cc1`, TGI 87.4 µM. Against it:
- c1nc(OCC2CCCCC2)c2[nH]cnc2n1 — higher, > 100 µM
- Oc1cn(-c2ccc(Cl)cc2)nc1-c1nnc(-c2ccccc2)o1 — 22-fold lower, 4.05 µM
- O=C(O)CC(CC(=O)O)C(=O)O — higher, > 100 µM
- CC(=O)N(C)c1ccc(Nc2cc(C)[nH]c3ccc4ncnc4c23)cc1 — 3.2-fold lower, 27.6 µM
- FC(F)(F)c1ccc(N=C/C=C(/Nc2ccc(C(F)(F)F)cc2)c2ccc(Cl)cc2)cc1 — 3.1-fold lower, 28.6 µM
- CC(C)(C)[Si](OC1CC(n2cnc3c(N)ncnc32)OC1CO)(c1ccccc1)c1ccccc1 (stereo unspecified) — 2.2-fold lower, 38.9 µM
- NS(=O)(=O)c1ccc(N=Nc2nc3[nH]c(=O)[nH]c(=O)c3[nH]2)cc1 — higher, > 100 µM
- CC1=CC(C)C/C=C/C2C3OC3(C)C(C)C3C(Cc4c[nH]c5ccccc45)NC(=O)C23C(=O)C=CC(=O)C1O (stereo unspecified) — 2.9-fold lower, 30 µM
- O=C(O)c1ccc(Nc2c3ccccc3nc3ccccc23)cc1 — higher, > 100 µM
- Cc1cc(C)n(C(=C(C(Cl)=C(Cl)Cl)[N+](=O)[O-])n2nc(C)cc2C)n1 — 6.3-fold lower, 13.9 µM
- COc1ccc(C2COc3cc(OC(C)=O)c(OC(C)=O)cc3C2)cc1 (stereo unspecified) — 2.6-fold lower, 34 µM
- C/C(=N\NC(=S)N1CCCCC1)c1nc2ncccc2[nH]1 — higher, > 100 µM

Test system: EKVX NSCLC
Experiment: growth of human tumour cells (NCI), 48 h

Work on `c1nc(OCC2CCCCC2)c2[nH]cnc2n1` yielded a TGI greater than 100 µM.
